Assay results from patent US10947202B2, “Sodium ion channel inhibitors and pharmaceutically acceptable salts and polymorphs thereof and uses thereof” (SHANGHAI HAIYAN PHARMACEUTICAL TECHNOLOGY CO., LTD., priority 2017, dated 2021).
Blank lines part the entries; values can stand above or below the compound they belong to.

How the values were obtained:
hNav1.7 = hNav1.7 (Homo sapiens, UniProt Q15858); assay: Manual patch clamp experiment of hNav1.7 channel (CHO-hNav1.7 stable cell line); format: cell-based; settings: for inhibition at 0.1 µM: read-out: Inhibition of Nav1.7, 100 nM(%); for inhibition at 1 µM: read-out: Inhibition of Nav1.7, 1000 nM(%)
From the text: Patch voltage clamp electrophysiology allows for the direct measurement and quantification of current block of voltage-gated sodium channels (NaV's), and allows the determination of the time and voltage-dependence of block which has been interpreted as differential binding to the resting, open and inactivated states of the sodium channel to reflect the compound's inhibitory or activating effects (Hille, B., Journal of General Physiology (1977), 69: 497-515).
Representative compounds of the present disclosure were performed using a manual patch clamp experiment and the purpose of this study was to test the effect of compounds on this ion channel current on a stable cell line transfected with a specific ion channel using a manual patch clamp method, the used stable cell lines CHO-hNav1.7 and HEK-hNav1.5 were from Genionics and WuXi Apptec (Shanghai) respectively.
Manual patch clamp experimental program is as follows:
(1) Preparation of solutions and compounds: The whole cell patch clamp technique was used to record hNav1.7 and hNav1.5 currents. In the experiment, the composition of extracellular fluid (mM): HEPES: 5, NaCl: 40, KCl: CaCl2:1, MgCl2:1, CdCl2:0.1, TEA-Cl: 20. The pH was adjusted to 7.3 with NaOH and the osmotic pressure was adjusted to 310-320 mOsm with sucrose, filtered and stored at 4° C. The composition of the intracellular fluid (mM): HEPES: 10, NaCl: 10, CsOH: 5, CsF: 140, EGTA: 1. The pH was adjusted to 7.3 with CsOH and the osmotic pressure was adjusted to 280-290 mOsm with sucrose, filtered and stored at −20° C.
The positive control and the test compound were firstly dissolved in 100% DMSO (Sigma-Aldrich, D2650), configured as stock solution at a concentration (100 nM, 1000 nM).) The above stock solution was serially diluted with DMSO prior to the experiment, the solution was further diluted with extracellular solution to obtain the desired concentration of the test solution.
(2) Manual Patch Clamp Experiment: The cell suspension was added to a 35 mm petri dish and placed on an inverted microscope stage, the cells were perfused with an extracellular fluid and the flow rate was 1-2 mL/min after cell adherence. The glass microelectrode was pulled in two steps by a microelectrode puller with an inlet water resistance of 2-5 MΩ. A/D-D/A digital-analog conversion was performed by Digidata 1440 (Molecular Devices) and pCLAMP software (version 10.2, Molecular Devices) for stimulation and signal acquisition; the signal was amplified by patch clamp amplifier (Multiclamp 700B, Molecular Devices), filtering is 4 KHz.
Two different voltage stimulation procedures were used in the hNav1.7 and hNav1.5 manual patch clamp experiments.
One is the inactivation stimulation program, the clamp potential is set at V1/2 of the corresponding channel, ie about 50% of the channels are inactivated, then the voltage is applied to −120 mV for 50 ms, then depolarized to −10 mV for 20 ms leading to sodium current, and finally back to the clamp potential. This stimulation program can also be called channel state-dependent voltage stimulation program.
The other is the non-inactivation stimulation program, the clamp potential is maintained at −120 mV, voltage stimulation is given to −10 mV for 20 ms leading to sodium current, and finally back to the clamp potential. That is all channels have not experienced inactivation status, but activate directly from the resting state under the conditions of the stimulation program.
The time intervals of these two voltage stimulation program were 10 s. The inhibitory effect of the compound was calculated by the change of the current before and after dosing, the IC50 value was fitted by the Hill equation. […] The results are shown in Table 33 and Table 34, respectively.

[1] = Metabolism stability test in liver microsomes; format: in vitro ADME; settings: human liver microsomes
Method: Buffer A: 1 L solution of 100 mM potassium dihydrogen phosphate containing 1 mM EDTA (Sigma, V900157-100G) was prepared.
Buffer B: 1 L solution of 100 mM dipotassium hydrogen phosphate containing 1 mM EDTA was prepared.
Buffer C: 700 mL of buffer B was taken out and titrated with buffer A to pH 7.4.
2.1 10 μl of 10 mM compound to be tested and 10 μl of 10 mM ketanserin were taken out and 190 μl of pure acetonitrile was added to each of them to prepare 500 μM compound to be tested and ketanserin, respectively.
2.2 20 μl (20 mg/mL) of liver microsomes (Corning Lot. NO. 4133007) stock solution was added to 513.4 μl of buffer C on wet ice. 0.75 mg/mL liver microsomal solution was obtained.
2.3 1.5 μl of each of the above-mentioned compound to be tested and ketanserin solution was added to 498.5 μl of liver microsomal solution (0.7 5 mg/mL) respectively on wet ice. 1.5 μM mixed solution of compound to be tested and 1.5 μM mixed solution of ketanserin were obtained.
2.4 At the time points 0, 5, 15, 30, 45, and 60 min, 30 μl of the mixed solution of compound to be tested and 30 μl of the mixed solution of ketanserin were dispensed into the reaction plate on wet ice, respectively.
2.5 5 mg reduced coenzyme II (Roche, 10621706001) was weighed and dissolved in 1 mL of buffer C. 6 mM reduced coenzyme II solution was obtained. The reduced coenzyme II solution was dispensed into the reaction plate.
2.6 Imipramine was dissolved to give a 10 mM solution. 10 μl imipramine solution was added to 100 mL of blank acetonitrile to generate the internal reference.
2.7 At 0 min, 135 μL of iced acetonitrile (Merck (Lot. 1778229518)) containing the internal reference was added to each well and then 15 μL of buffer C was added.
2.8 The reaction plate was placed into a 37° C. water bath incubator for 5 min. In the reaction plate, 15 μL of reduced coenzyme II solution was added to each well to initiate the reaction, and the time keeping was started. At the time points of 5, 15, 30, 45, and 60 min, 135 μL of iced acetonitrile containing the internal reference was added to each well to terminate the reaction.
2.9 The reaction plate was sealed with an aluminum film, placed on a vibration mixer and shaken at 500 rpm for 5 min. The plate was then centrifuged in a centrifuge at 3750 rp for 15 min.
2.10 The sample was diluted with pure water in accordance with the ratio of 1:1 and detected by LC/MS. […]
Wherein, the K value and the proportional factor were calculated by those skilled in the art according to the methods described in the prior art and contained in the instructions of the liver microsome product.

[2] = Hygroscopicity experiment (DVS); format: physicochemical
From the text: The Dynamic Vapor Sorption (DVS) curve was acquired on the DVS Intrinsic of Surface Measurement Systems.
The DVS results for crystal forms A, D, E-3 and F are shown in FIG. 1E, FIG. 4F, FIG. 7E and FIG. 8E, respectively.

[3] = Crystal form stability on shaking in solvent or heating (XRPD); format: physicochemical; settings: heated to 150° C.
Method: The reaction solution in the step 4 of Example 1 was poured into water, extracted with ethyl acetate, dried and concentrated, ethanol was added to dissolve and the solution was evaporated, 1N hydrochloric acid and ethyl acetate were added and stirred for 1-2 h, filtered, a solid product which was the crystal form III of free base was obtained, the X-ray powder diffraction pattern is shown in FIG. 11A (the 2θ angle has been marked), the DSC/TGA/DVS patterns are shown in FIGS. 11B, 11C and 11D. According to the DSC pattern, there is an inflection point around 100° C., and the sample has a melting absorption peak at 181.9° C. […] The sample was shaken in ACE and MeOH at 50° C. for 1 day, and the crystal form was unchanged.
The reaction solution in the step 4 of Example 1 was poured into water, extracted with ethyl acetate, dried and concentrated to retain a small amount of ethyl acetate, 1N hydrochloric acid was added and stirred for 1 h, filtered, the filter cake was washed with ethanol and then filtered to obtain a solid product which was the crystal form IV of free base was obtained. The X-ray powder diffraction pattern is shown in FIG. 12A (the […] has been marked), the DSC/TGA/DVS patterns are shown in FIGS. 12B, 12C and 12D. […] The sample was shaken in ACE at 50° C. for 1 day, and the crystal form was unchanged. […]

hNav1.7, sequence (Q15858 whole entry): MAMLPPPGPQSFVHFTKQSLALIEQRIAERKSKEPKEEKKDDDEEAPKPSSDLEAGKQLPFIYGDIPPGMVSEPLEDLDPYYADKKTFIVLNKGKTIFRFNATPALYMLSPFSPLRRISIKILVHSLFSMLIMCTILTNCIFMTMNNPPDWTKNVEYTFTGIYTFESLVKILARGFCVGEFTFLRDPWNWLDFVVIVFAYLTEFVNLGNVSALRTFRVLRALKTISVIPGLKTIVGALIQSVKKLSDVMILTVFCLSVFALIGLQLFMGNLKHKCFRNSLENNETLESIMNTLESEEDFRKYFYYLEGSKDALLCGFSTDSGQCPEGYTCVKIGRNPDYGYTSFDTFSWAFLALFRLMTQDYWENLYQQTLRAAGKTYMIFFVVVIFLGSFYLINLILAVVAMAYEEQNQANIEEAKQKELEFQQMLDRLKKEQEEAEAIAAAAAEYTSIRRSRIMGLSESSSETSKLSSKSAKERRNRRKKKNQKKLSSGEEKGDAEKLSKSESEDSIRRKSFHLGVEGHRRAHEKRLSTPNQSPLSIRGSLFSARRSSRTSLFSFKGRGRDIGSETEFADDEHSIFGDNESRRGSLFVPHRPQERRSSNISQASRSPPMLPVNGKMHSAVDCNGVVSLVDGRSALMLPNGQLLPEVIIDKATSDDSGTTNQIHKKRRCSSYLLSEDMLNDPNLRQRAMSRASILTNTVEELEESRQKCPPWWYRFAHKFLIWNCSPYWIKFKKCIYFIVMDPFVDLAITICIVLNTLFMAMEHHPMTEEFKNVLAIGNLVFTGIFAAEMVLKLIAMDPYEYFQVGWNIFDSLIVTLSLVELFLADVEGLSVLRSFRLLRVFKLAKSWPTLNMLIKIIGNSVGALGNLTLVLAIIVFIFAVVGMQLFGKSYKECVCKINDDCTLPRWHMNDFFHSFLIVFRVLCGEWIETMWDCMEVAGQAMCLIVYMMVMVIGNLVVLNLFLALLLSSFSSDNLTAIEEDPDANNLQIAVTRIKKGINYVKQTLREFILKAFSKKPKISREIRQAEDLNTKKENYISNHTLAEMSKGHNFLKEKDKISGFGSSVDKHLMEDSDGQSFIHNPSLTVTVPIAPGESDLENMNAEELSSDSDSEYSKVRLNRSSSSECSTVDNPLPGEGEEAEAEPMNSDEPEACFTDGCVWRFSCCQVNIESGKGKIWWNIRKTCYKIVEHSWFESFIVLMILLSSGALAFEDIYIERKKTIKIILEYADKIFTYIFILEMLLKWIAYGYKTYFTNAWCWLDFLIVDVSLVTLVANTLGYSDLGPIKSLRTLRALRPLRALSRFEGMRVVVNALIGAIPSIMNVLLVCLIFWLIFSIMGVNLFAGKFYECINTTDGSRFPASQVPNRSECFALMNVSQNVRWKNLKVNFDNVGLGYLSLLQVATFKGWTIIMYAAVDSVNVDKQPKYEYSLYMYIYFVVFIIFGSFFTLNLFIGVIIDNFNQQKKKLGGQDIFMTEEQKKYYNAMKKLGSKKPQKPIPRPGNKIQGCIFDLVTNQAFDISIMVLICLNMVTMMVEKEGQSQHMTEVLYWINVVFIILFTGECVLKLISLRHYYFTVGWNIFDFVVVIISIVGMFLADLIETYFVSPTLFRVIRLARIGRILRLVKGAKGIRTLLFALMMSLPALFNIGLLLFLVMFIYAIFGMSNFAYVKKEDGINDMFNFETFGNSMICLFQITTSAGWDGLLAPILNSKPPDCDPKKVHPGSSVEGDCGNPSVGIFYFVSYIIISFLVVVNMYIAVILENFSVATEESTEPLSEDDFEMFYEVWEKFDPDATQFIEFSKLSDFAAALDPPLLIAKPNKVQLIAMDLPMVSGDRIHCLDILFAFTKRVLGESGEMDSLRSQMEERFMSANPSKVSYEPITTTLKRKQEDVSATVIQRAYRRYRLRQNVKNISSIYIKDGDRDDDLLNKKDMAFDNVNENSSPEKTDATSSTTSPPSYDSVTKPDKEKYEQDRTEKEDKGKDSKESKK

inhibition at 1 µM (hNav1.7): 67.2%
Structure (SMILES): O=C(NS(=O)(=O)C1CC1)c1cc(Cl)c(CN2CCN(Cc3ccc(Cl)cc3)CC2)cc1F [C6]

Clearance ratio [1]: 138.91 mL/min/kg
Structure (SMILES): Cc1cc(N2CCN(Cc3cc(F)c(C(=O)NS(C)(=O)=O)cc3Cl)CC2)ccc1Cl [C13, reference compound]

Second part, the compound before the results:

Structure (SMILES): O=C(NS(=O)(=O)C1CC1)c1cc(C2CC2)c(CN2CCN(Cc3cc(Cl)cc(Cl)c3)CC2)cc1F [C1]
inhibition at 0.1 µM (hNav1.7): 49.2%
inhibition at 1 µM (hNav1.7): 64.8%

Structure (SMILES): CS(=O)(=O)NC(=O)c1cc(C2CC2)c(CN2CCN(Cc3ccc(Cl)c(Cl)c3)CC2)cc1F [C2]
inhibition at 0.1 µM (hNav1.7): 52%
inhibition at 1 µM (hNav1.7): 64%

Structure (SMILES): CS(=O)(=O)NC(=O)c1cc(Cl)c(CN2CCN(c3ccc(C4CC4)c(Cl)c3)CC2)cc1F [C12, reference compound]
Clearance ratio [1]: 78.28 mL/min/kg

Structure (SMILES): Cc1cc(N2CCN(Cc3cc(F)c(C(=O)NS(=O)(=O)C4CC4)cc3Cl)CC2)ccc1Cl [crystal form VI, 5-chloro-4-((4-(4-chloro-3-methylphenyl)piperazin-1-yl)methyl)-N-(cyclopropylsulfonyl)-2-fluorobenzamide]
hygroscopicity (DVS curve) [2]: slightly hygroscopic
crystal form after heating [3]: converted into crystal form I

Structure (SMILES): Cc1cc(N2CCN(Cc3cc(F)c(C(=O)NS(=O)(=O)C4CC4)cc3Cl)CC2)ccc1Cl [crystal form VII, 5-chloro-4-((4-(4-chloro-3-methylphenyl)piperazin-1-yl)methyl)-N-(cyclopropylsulfonyl)-2-fluorobenzamide]
hygroscopicity (DVS curve) [2]: slightly hygroscopic
crystal form after heating [3]: converted into crystal form I
